Test results reported in EP0236939A1, “Derivatives of 5-acyloxy-13-beta-alkyl milbemicyne against parasites in animals and plants” (CIBA-GEIGY AG, priority 1986, dated 1987).
Like-named read-outs stand apart in the source and are kept apart here.

Experiments:
Dermanyssus gallinae = assay: B-9 miticidal action against Dermanyssus gallinae; assay type: in vivo; details: for Wirkung (Mortalität): 4320 min; for mortality at 100 ppm: Dermanyssus gallinae, 72 h, read-out: Wirkung (Mortalität)
Method: 2 bis 3 ml einer Testlösung (100, 10, 1 und 0,1 ppm Aktivsubstanz) werden in einen nach oben offenen Glasbehälter gegeben und ca. 200 Milben in unterschiedlichen Entwicklungsstadien in diesen Behälter eingesetzt. Der Glasbehälter wird mit einem Wattebausch verschlossen und 10 Minuten gleichmässig, bis zur vollständigen Benetzung der Milben geschüttelt. Danach wird der Behälter umgekehrt hingestellt, bis die überschüssige Testlösung von der Watte aufgesogen ist. Der Behälter wird erneut gekehrt und die behandelten […] zur Evaluierung der Wirksamkeit der Testsubstanzen drei Tage unter Laborbedingungen beobachtet, wobei die Mortalität als Massstab für Wirksamkeit herangezogen wird.

Spodoptera littoralis = assay: B-1 insecticidal stomach-poison action on Spodoptera littoralis (sprayed cotton plants); assay type: in vivo; details: Wirkstoffkonzentration 3 ppm; nach 24 Stunden; L1 larvae on sprayed cotton plants
Method: Eingetopfte Baumwollpflanzen im 5-Blatt-Stadium werden mit einer acetonisch/wässrigen Versuchslösung besprüht, die 3, 12,5 oder 50 ppm der zu prüfenden Verbindung enthält.
Nach dem Antrocknen des Belags werden die Pflanzen mit ca. 30 Larven (L₁-Stadium) von Spodoptera littoralis besetzt. Pro Versuchsverbindung und pro Test-Spezies verwendet man zwei Pflanzen. Der Versuch wird bei ca. 24°C und 60 % relativer Luftfeuchtigkeit durchgeführt. Auswertungen und Zwischenauswertungen auf moribunde Tiere, Wachstum und Larven und Frassschäden erfolgen nach 24 Stunden, 48 Stunden und 72 Stunden.

[1] = system: L₁-Larven von Lucilia sericata; assay: B-3 action against L1 larvae of Lucilia sericata (larval culture medium); assay type: in vivo; details: after 4 days; for Wirkung (Mortalitätsrate): 100 ppm; for mortality at 100 ppm: Lucilia sericata, 96 h, read-out: Wirkung (Mortalitätsrate)
Method: 1 ml einer wässrigen Suspension der zu prüfenden Aktivsubstanz werden so mit 3 ml eines speziellen Larvenzuchtmediums bei ca. 50°C vermischt, dass ein Homogenisat von wahlweise 250 ppm oder 100 ppm Wirkstoffgehalt entsteht. In jede Reagenzglas-Probe werden ca. 30 Lucilia-Larven (L₁) eingesetzt. Nach 4 Tagen wird die Mortalitätsrate bestimmt. Verbindungen der Formel I aus den Tabellen, wie z.B. die Verbindungen Nr. 2.8, 2.17, 2.31, 2.33, 2.35, 2.43, 2.1, 2.18 und 2.45 erzielten mit 100 ppm eine Wirkung von 100 %.

[2] = system: Haemonchus concortus und Trichostrongylus colubriformis; assay: B-5 test on sheep infected with nematodes (worm egg count in faeces); assay type: in vivo, Schafe; details: 0,2 mg/kg, single dose by stomach tube or intraruminal injection; compared with untreated infected sheep
Method: Der Wirkstoff wird als Suspension formuliert mit einer Magensonde oder durch Injektion in den Pansen eines Schafes gegeben, das mit Haemonchus concortus und Trychostrongylus colubriformis künstlich infiziert worden ist. Pro Dosis werden 1 bis 3 Tiere verwendet. Jedes Schaf wird nur einmal mit einer einzigen Dosis behandelt, und zwar wahlweise mit 0,5 mg oder 0,2 mg/kg Körpergewicht. Die Evaluierung erfolgt durch Vergleich der Anzahl der vor und nach Behandlung im Kot der Schafe ausgeschiedenen Wurmeier.
Gleichzeitig und gleichartig infizierte aber unbehandelte Schafe dienen als Kontrolle.

Aphis craccivora = assay: B-6 contact action on Aphis craccivora (sprayed pea seedlings); assay type: in vivo; details: 12,5 ppm, after 3 days; for mortality at 12.5 ppm: Aphis craccivora, 72 h, read-out: Abtötung
Excerpt: Erbsenkeimlinge, die mit sämtlichen Entwicklungsstadien der Laus infiziert sind, werden mit einer aus einem Emulsionskonzentrat hergestellten Wirkstofflösung besprüht, die wahlweise 50 ppm, 25 ppm oder 12,5 ppm Wirkstoff enthält. Nach 3 Tagen wird auf mehr als 80 % tote bzw. abgefallene Blattläuse ausgewertet. Nur bei dieser Wirkungshöhe wird ein Präparat als wirksam eingestuft.

Aedes aegypti = assay: B-7 larvicidal action against Aedes aegypti; assay type: in vivo; details: 1,6 ppm; nach einem Tag
Method: Auf die Oberfläche von 150 ml Wasser, das sich in einem Behälter befindet, wird soviel einer 0,1 %igen acetonischen Lösung des Wirkstoffes pipettiert, dass Konzentrationen von wahlweise 10 ppm, 3,3 ppm und 1,6 ppm erhalten werden. Nach Verdunsten des Acetons wird der Behälter mit ca. 30-40 3 Tage alten Aedes-Larven beschickt. Nach 1, 2 und 5 Tagen wird die Mortalität geprüft.

[3] = system: Boophilus microplus (Biarra-Stamm); assay: B-4 acaricidal action against Boophilus microplus (injection into engorged female ticks, IR90); assay type: in vivo; details: injection of 1, 0,1 or 0,01 µg per tick; dose of the result not stated
Method: Auf einer PVC-Platte wird waagrecht ein Klebstreifen so befestigt, das darauf 10 mit Blut vollgesogene Zecken-Weibchen von Boophilus microplus (Biarra-Stamm) nebeneinander in einer Reihe mit dem Rücken aufgeklebt werden können. Jeder Zecke wird mit einer Injektionsnadel 1 µl einer Flüssigkeit injiziert, die eine 1:1-Mischung von Polyethylenglykol und Aceton darstellt und in der eine bestimmte Wirkstoffmenge von wahlweise 1, 0,1 oder 0,01 µg pro Zecke gelöst ist. Kontrolltiere erhalten eine wirkstofffreie Injektion. Nach der Behandlung werden die Tiere unter Normalbedingungen in einem Insektarium bei ca. 28°C und 80 % relativer Luftfeuchtigkeit gehalten, bis die Eiablage erfolgt und die Larven aus den Eiern der Kontrolltiere geschlüpft sind.
Die Aktivität einer geprüften Substanz wird mit der IR₉₀ bestimmt, d.h. es wird jene Wirkstoffdosis ermittelt, bei der noch nach 30 Tagen 9 von 10 Zeckenweibchen (= 90 %) Eier ablegen, die nicht schlupffähig sind.

[4] = system: OP-sensible Tetranychus urticae; assay: B-2 action against plant-damaging acarids, OP-sensitive Tetranychus urticae (sprayed bean plants); assay type: in vivo; details: Wirkstoffkonzentration 0,4 ppm; evaluated after seven days; all mite stages on bean plants
Method: Die Primärblätter von Bohnenpflanzen (Phaseolus vulgaris) werden 16 Stunden vor dem Versuch mit einem durch T. urticae infestierten, aus einer Massenzucht stammenden Blattstück belegt. Die so mit allen Milben-Stadien infestierten Pflanzen werden nach Entfernung des Blattstücks mit einer Versuchslösung bis zur Tropfnässe besprüht, die wahlweise 0,4 ppm oder 1,6 ppm der zu prüfenden Verbindung enthält. Die Temperatur in der Gewächshauskabine beträgt ca. 25°C.
Nach sieben Tagen wird unter dem Binokular auf Prozentsatz mobiler Stadien (Adulte und Nymphen) und auf vorhandene Eier ausgewertet.

Meloidogyne incognita = assay: B-8 soil-nematicidal action against Meloidogyne incognita (tomato plants, root-knot index); assay type: in vivo; details: 0,002 % Aktivsubstanz based on soil volume; after 4 weeks; untreated infected controls = 100 %
Method: Eier von Meloidogyne incognita werden in Sand eingemischt. Dieses Gemisch wird dann in 200 ml fassende Tontöpfe eingebracht (5000 Eier pro Topf). Am gleichen Tag wird pro Topf eine 3 Wochen alte Tomatenpflanze gepflanzt und der formulierte Wirkstoff mittels Druckapplikation in die Töpfe hineingegeben (0,002 % Aktivsubstanz bezogen auf das Bodenvolumen). Die eingetopften Pflanzen werden nun bei einer Temperatur von 26±1°C und einer relativen Luftfeuchtigkeit von 60 % in einem Gewächshaus aufgestellt. Nach Ablauf von 4 Wochen erfolgt eine Evaluierung durch Untersuchung der Pflanzen auf Wurzelgallbildung nach dem sogenannten Wurzelgall-Index ("Knot Index")

[5] = 100 ppm, observed for three days

Compound: 5-O-(1,2,4-Trizaol-1-yl)acetyl-13β-methyl-milbemycin A₄-Zink(II)-Komplex [Verbindung 2.35]
- Wirkung (Mortalität) (Dermanyssus gallinae; [5]): 100%
- Abtötung (Spodoptera littoralis): vollständige Abtötung
- Wirkung (Mortalitätsrate) [1]: 100%
- Nematodenbefall (Reduktion der Wurmeier im Kot) [2]: keinen Nematodenbefall
- Abtötung (Aphis craccivora): 100%

Compound: 5-O-(3,4-Dihydro-2H-pyran-2-yl)carboxyacetyl-13β-methyl-milbemycin A₄ [Verbindung 2.31]
- Abtötung sämtlicher Larven (Aedes aegypti): vollständige Abtötung
- Wirkung (Mortalität) (Dermanyssus gallinae; [5]): 100%
- Wirkung (Mortalitätsrate) [1]: 100%
- Nematodenbefall (Reduktion der Wurmeier im Kot) [2]: keinen Nematodenbefall

Compound: CC[C@H]1O[C@]2(CC[C@@H]1C)C[C@@H]1C[C@@H](C/C=C(\C)[C@H](C)[C@@H](C)/C=C/C=C3\CO[C@@H]4[C@H](OC(C)=O)C(C)=C[C@@H](C(=O)O1)[C@]34O)O2 [Verbindung 2.1, 5-O-Acetyl-13β-methyl-milbemycin A₄]
- Abtötung sämtlicher Larven (Aedes aegypti): vollständige Abtötung
- mortality at 100 ppm [1]: 100%
- Nematodenbefall (Reduktion der Wurmeier im Kot) [2]: keinen Nematodenbefall

Compound: CC[C@H]1O[C@]2(CC[C@@H]1C)C[C@@H]1C[C@@H](C/C=C(\C)[C@H](C)[C@@H](C)/C=C/C=C3\CO[C@@H]4[C@H](OC(=O)CCl)C(C)=C[C@@H](C(=O)O1)[C@]34O)O2 [Verbindung 2.8, 5-O-Chloracetyl-13β-methyl-milbemycin A₄]
- Abtötung sämtlicher Larven (Aedes aegypti): vollständige Abtötung
- mortality at 100 ppm (Dermanyssus gallinae; [5]): 100%
- Wirkung (IR₉₀) [3]: sehr gute Wirkung
- Abtötung [4]: vollständige Abtötung
- Abtötung (Spodoptera littoralis): vollständige Abtötung
- mortality at 100 ppm [1]: 100%
- Nematodenbefall (Reduktion der Wurmeier im Kot) [2]: keinen Nematodenbefall
- mortality at 12.5 ppm (Aphis craccivora): 100%

Compound: CC[C@H]1O[C@]2(CC[C@@H]1C)C[C@@H]1C[C@@H](C/C=C(\C)[C@H](C)[C@@H](C)/C=C/C=C3\CO[C@@H]4[C@H](OC(=O)COC(C)=O)C(C)=C[C@@H](C(=O)O1)[C@]34O)O2 [Verbindung 2.17, 5-O-Acetoxy-acetyl-13β-methyl-milbemycin A₄]
- Abtötung sämtlicher Larven (Aedes aegypti): vollständige Abtötung
- mortality at 100 ppm (Dermanyssus gallinae; [5]): 100%
- Restbefall (Wurzelgallbildung) (Meloidogyne incognita): 0-10%
- Abtötung [4]: vollständige Abtötung
- mortality at 100 ppm [1]: 100%
- Nematodenbefall (Reduktion der Wurmeier im Kot) [2]: keinen Nematodenbefall
- mortality at 12.5 ppm (Aphis craccivora): 100%

Compound: CC[C@H]1O[C@]2(CC[C@@H]1C)C[C@@H]1C[C@@H](C/C=C(\C)[C@H](CC)[C@@H](C)/C=C/C=C3\CO[C@@H]4[C@H](OC(=O)COC(C)=O)C(C)=C[C@@H](C(=O)O1)[C@]34O)O2 [Verbindung 2.18, 5-O-Acetoxy-acetyl-13β-ethyl-milbemycin A₄]
- Abtötung sämtlicher Larven (Aedes aegypti): vollständige Abtötung
- Restbefall (Wurzelgallbildung) (Meloidogyne incognita): 0-10%
- mortality at 100 ppm [1]: 100%
- Nematodenbefall (Reduktion der Wurmeier im Kot) [2]: keinen Nematodenbefall

Compound: CC[C@H]1O[C@]2(CC[C@@H]1C)C[C@@H]1C[C@@H](C/C=C(\C)[C@H](C)[C@@H](C)/C=C/C=C3\CO[C@@H]4[C@H](OC(=O)Cn5cncn5)C(C)=C[C@@H](C(=O)O1)[C@]34O)O2 [Verbindung 2.33, 5-O-(1,2,4-Triazol-1-yl)-acetyl-13β-methyl-milbemycin A₄]
- Abtötung sämtlicher Larven (Aedes aegypti): vollständige Abtötung
- mortality at 100 ppm (Dermanyssus gallinae; [5]): 100%
- Wirkung (IR₉₀) [3]: sehr gute Wirkung
- Restbefall (Wurzelgallbildung) (Meloidogyne incognita): 0-10%
- Abtötung (Spodoptera littoralis): vollständige Abtötung
- mortality at 100 ppm [1]: 100%
- Nematodenbefall (Reduktion der Wurmeier im Kot) [2]: keinen Nematodenbefall
- mortality at 12.5 ppm (Aphis craccivora): 100%

Compound: CC[C@H]1O[C@]2(CC[C@@H]1C)C[C@@H]1C[C@@H](C/C=C(\C)[C@H](C)[C@@H](C)/C=C/C=C3\CO[C@@H]4[C@H](OC(=O)COC)C(C)=C[C@@H](C(=O)O1)[C@]34O)O2 [Verbindung 2.43, 5-O-Methoxyacetyl-13β-methyl-milbemycin A₄]
- Abtötung sämtlicher Larven (Aedes aegypti): vollständige Abtötung
- Abtötung [4]: vollständige Abtötung
- Abtötung (Spodoptera littoralis): vollständige Abtötung
- mortality at 100 ppm [1]: 100%
- Nematodenbefall (Reduktion der Wurmeier im Kot) [2]: keinen Nematodenbefall
- mortality at 12.5 ppm (Aphis craccivora): 100%

Compound: CC[C@H]1O[C@]2(CC[C@@H]1C)C[C@@H]1C[C@@H](C/C=C(\C)[C@H](C)[C@@H](C)/C=C/C=C3\CO[C@@H]4[C@H](OC(=O)COC(=O)c5cccc(Cl)c5)C(C)=C[C@@H](C(=O)O1)[C@]34O)O2 [Verbindung 2.44, 5-O-(3-Chlorbenzoyloxy)-acetyl-13β-methyl-milbemycin A₄]
- Nematodenbefall (Reduktion der Wurmeier im Kot) [2]: keinen Nematodenbefall

Compound: CC[C@H]1O[C@]2(CC[C@@H]1C)C[C@@H]1C[C@@H](C/C=C(\C)[C@H](CC)[C@@H](C)/C=C/C=C3\CO[C@@H]4[C@H](OC(=O)CCl)C(C)=C[C@@H](C(=O)O1)[C@]34O)O2 [Verbindung 2.45]
- mortality at 100 ppm [1]: 100%
- Nematodenbefall (Reduktion der Wurmeier im Kot) [2]: keinen Nematodenbefall

Compound: CC[C@H]1O[C@]2(CC[C@@H]1C)C[C@@H]1C[C@@H](C/C=C(\C)[C@H](C)[C@@H](C)/C=C/C=C3\CO[C@@H]4[C@H](OC(=O)COCOC)C(C)=C[C@@H](C(=O)O1)[C@]34O)O2 [Verbindung 2.48]
- mortality at 100 ppm (Dermanyssus gallinae; [5]): 100%

Compound: CC[C@H]1O[C@]2(CC[C@@H]1C)C[C@@H]1C[C@@H](C/C=C(\C)[C@H](C)[C@@H](C)/C=C/C=C3\CO[C@@H]4[C@H](OC(=O)COc5ccccc5)C(C)=C[C@@H](C(=O)O1)[C@]34O)O2 [Verbindung 2.53]
- Nematodenbefall (Reduktion der Wurmeier im Kot) [2]: keinen Nematodenbefall

Compound: CC[C@H]1O[C@]2(CC[C@@H]1C)C[C@@H]1C[C@@H](C/C=C(\C)[C@H](C)[C@@H](C)/C=C/C=C3\CO[C@@H]4[C@H](OC(=O)COS(=O)(=O)c5ccc(C)cc5)C(C)=C[C@@H](C(=O)O1)[C@]34O)O2 [Verbindung 2.55]
- mortality at 100 ppm (Dermanyssus gallinae): 100%
